One experiment has as its target MCL-1 (Homo sapiens (Human), UniProt Q07820). Briefly: Cell free Mcl-1:Bim affinity assay (fluorescence polarization competition). Type of experiment: binding. The settings on record: 15 nM MCL-1, 5 nM FITC-Bim, 1 hour at room temperature; class symbols; read-out: BIM_Ki. An outline of the steps: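 Fluorescence polarization competition: 10-point 3-fold compound dilutions displaced 5 nM FITC-Bim from 15 nM MCL-1 over 1 h at room temperature. Ki was derived from the fitted IC50 using the Nikolovska-Coleska equation, with percent inhibition normalized to DMSO and positive controls.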
A general note: Polarisation of emitted light reports the rotation of a fluorescent probe.

In a further experiment the test system is H929 cells. Kind of experiment: Cell viability assay (H929 10 FBS). The settings on record: Homo sapiens, NCI-H929, 24 hours, read-out: H929_10FBS IC50. Type of experiment: cell-based. The essentials: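 ATP-based luminescence (CellTiter-Glo or ATPlite 1 Step, 30-60 min at RT) gauged viability of H929 myeloma cells after 24 h compound treatment at 37 °C. Cells plated at 4000 per well in 10% FBS RPMI 1640 supplemented with pyruvate, HEPES and glucose.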

Sequence of MCL-1 (Q07820 whole entry): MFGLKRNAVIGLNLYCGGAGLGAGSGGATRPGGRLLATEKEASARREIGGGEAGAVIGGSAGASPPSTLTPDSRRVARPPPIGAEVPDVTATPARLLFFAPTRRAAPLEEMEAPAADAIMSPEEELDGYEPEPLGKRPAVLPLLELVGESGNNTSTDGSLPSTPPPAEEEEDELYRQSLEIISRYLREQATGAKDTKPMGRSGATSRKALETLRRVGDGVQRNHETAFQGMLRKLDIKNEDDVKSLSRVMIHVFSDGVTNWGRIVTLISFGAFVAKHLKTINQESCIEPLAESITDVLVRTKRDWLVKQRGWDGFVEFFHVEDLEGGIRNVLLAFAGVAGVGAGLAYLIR

As usually defined, the IC50 is the point on the concentration scale where inhibition reaches its midpoint. For the compound `CN(C)[C@H]1CCN(C(=O)O[C@H]2/C=C/COC(C)(C)C(=O)NS(=O)(=O)c3ccc4c(c3)N(C[C@@H]3CC[C@H]32)C[C@@]2(CCCc3cc(Cl)ccc32)CO4)C1` [Example 154, [(3R,6R,7S,8E,22S)-6′-Chloro-12,12-dimethyl-13,15,15-trioxo-spiro[11,20-dioxa-15-thia-1,14-diazatetracyclo[14.7.2.03,6.019,24]pentacosa-8,16,18,24-tetraene-22,1′-tetralin]-7-yl] (3S)-3-(dimethylamino)pyrrolidine-1-carboxylate], at MCL-1, the Ki is < 0.001 µM. The IC50 with H929 cells is < 0.5 µM.
In the case of `CN(C)CCNC(=O)O[C@H]1/C=C/COC(C)(C)C(=O)NS(=O)(=O)c2ccc3c(c2)N(C[C@@H]2CC[C@H]21)C[C@@]1(CCCc2cc(Cl)ccc21)CO3` [Example 155, [(3R,6R,7S,8E,22S)-6′-Chloro-12,12-dimethyl-13,15,15-trioxo-spiro[11,20-dioxa-15-thia-1,14-diazatetracyclo[14.7.2.03,6.019,24]pentacosa-8,16,18,24-tetraene-22,1′-tetralin]-7-yl] N-[2-(dimethylamino)ethyl]carbamate], the Ki on MCL-1 is < 0.001 µM. In addition, the IC50 with H929 cells is < 0.5 µM.
With `CNC1CN(C(=O)O[C@H]2/C=C/COC(C)(C)C(=O)NS(=O)(=O)c3ccc4c(c3)N(C[C@@H]3CC[C@H]32)C[C@@]2(CCCc3cc(Cl)ccc32)CO4)C1` [Example 156, [(3R,6R,7S,8E,22S)-6′-Chloro-12,12-dimethyl-13,15,15-trioxo-spiro[11,20-dioxa-15-thia-1,14-diazatetracyclo[14.7.2.03,6.019,24]pentacosa-8,16,18,24-tetraene-22,1′-tetralin]-7-yl] 3-(methylamino)azetidine-1-carboxylate], the Ki at MCL-1 is < 0.001 µM. Also, the IC50 in the experiment with H929 cells was < 0.5 µM.
The matching figures for `CNCCNC(=O)O[C@H]1/C=C/COC(C)(C)C(=O)NS(=O)(=O)c2ccc3c(c2)N(C[C@@H]2CC[C@H]21)C[C@@]1(CCCc2cc(Cl)ccc21)CO3` [Example 157, [(3R,6R,7S,8E,22S)-6′-Chloro-12,12-dimethyl-13,15,15-trioxo-spiro[11,20-dioxa-15-thia-1,14-diazatetracyclo[14.7.2.03,6.019,24]pentacosa-8,16,18,24-tetraene-22,1′-tetralin]-7-yl] N-[2-(methylamino)ethyl]carbamate]: < 0.001 µM and < 0.5 µM.
As to `CC1(C)CN(C(=O)O[C@H]2/C=C/COC(C)(C)C(=O)NS(=O)(=O)c3ccc4c(c3)N(C[C@@H]3CC[C@H]32)C[C@@]2(CCCc3cc(Cl)ccc32)CO4)CCO1` [Example 158, [(3R,6R,7S,8E,22S)-6′-Chloro-12,12-dimethyl-13,15,15-trioxo-spiro[11,20-dioxa-15-thia-1,14-diazatetracyclo[14.7.2.03,6.019,24]pentacosa-8,16,18,24-tetraene-22,1′-tetralin]-7-yl] 2,2-dimethylmorpholine-4-carboxylate], the Ki at MCL-1 is < 0.001 µM. Moreover, the IC50 with H929 cells is < 0.5 µM.
On to `COCCN(C)C(=O)O[C@H]1/C=C/COC(C)(C)C(=O)NS(=O)(=O)c2ccc3c(c2)N(C[C@@H]2CC[C@H]21)C[C@@]1(CCCc2cc(Cl)ccc21)CO3` [Example 159, [(3R,6R,7S,8E,22S)-6′-Chloro-12,12-dimethyl-13,15,15-trioxo-spiro[11,20-dioxa-15-thia-1,14-diazatetracyclo[14.7.2.03,6.019,24]pentacosa-8,16,18,24-tetraene-22,1′-tetralin]-7-yl] N-(2-methoxyethyl)-N-methyl-carbamate], for which the Ki at MCL-1 is < 0.001 µM. For the same compound, the IC50 in the experiment on H929 cells is < 0.5 µM.
On the same counts, the results for `COC[C@@H]1CCCN1C(=O)O[C@H]1/C=C/COC(C)(C)C(=O)NS(=O)(=O)c2ccc3c(c2)N(C[C@@H]2CC[C@H]21)C[C@@]1(CCCc2cc(Cl)ccc21)CO3` [Example 160, [(3R,6R,7S,8E,22S)-6′-Chloro-12,12-dimethyl-13,15,15-trioxo-spiro[11,20-dioxa-15-thia-1,14-diazatetracyclo[14.7.2.03,6.019,24]pentacosa-8,16,18,24-tetraene-22,1′-tetralin]-7-yl] (2S)-2-(methoxymethyl)pyrrolidine-1-carboxylate] are < 0.001 µM and < 0.5 µM.
The matching figures for `COC[C@H]1CCCN1C(=O)O[C@H]1/C=C/COC(C)(C)C(=O)NS(=O)(=O)c2ccc3c(c2)N(C[C@@H]2CC[C@H]21)C[C@@]1(CCCc2cc(Cl)ccc21)CO3` [Example 161, [(3R,6R,7S,8E,22S)-6′-Chloro-12,12-dimethyl-13,15,15-trioxo-spiro[11,20-dioxa-15-thia-1,14-diazatetracyclo[14.7.2.03,6.019,24]pentacosa-8,16,18,24-tetraene-22,1′-tetralin]-7-yl] (2R)-2-(methoxymethyl)pyrrolidine-1-carboxylate]: < 0.001 µM and < 1 µM.
`CCO[C@H]1CCN(C(=O)O[C@H]2/C=C/COC(C)(C)C(=O)NS(=O)(=O)c3ccc4c(c3)N(C[C@@H]3CC[C@H]32)C[C@@]2(CCCc3cc(Cl)ccc32)CO4)C1` [Example 162, [(3R,6R,7S,8E,22S)-6′-Chloro-12,12-dimethyl-13,15,15-trioxo-spiro[11,20-dioxa-15-thia-1,14-diazatetracyclo[14.7.2.03,6.019,24]pentacosa-8,16,18,24-tetraene-22,1′-tetralin]-7-yl] (3S)-3-ethoxypyrrolidine-1-carboxylate]: the Ki at MCL-1 was < 0.001 µM. Further, the half-maximal inhibitory concentration (IC50) with H929 cells was < 0.5 µM.
Consider `CN[C@H]1CCN(C(=O)O[C@H]2/C=C/COC(C)(C)C(=O)NS(=O)(=O)c3ccc4c(c3)N(C[C@@H]3CC[C@H]32)C[C@@]2(CCCc3cc(Cl)ccc32)CO4)C1` [Example 163, [(3R,6R,7S,8E,22S)-6′-Chloro-12,12-dimethyl-13,15,15-trioxo-spiro[11,20-dioxa-15-thia-1,14-diazatetracyclo[14.7.2.03,6.019,24]pentacosa-8,16,18,24-tetraene-22,1′-tetralin]-7-yl] (3S)-3-(methylamino)pyrrolidine-1-carboxylate], for which, at MCL-1, the Ki is < 0.001 µM. The half-inhibitory concentration (IC50) with H929 cells is < 0.5 µM.
On the same counts, the results for `CN[C@@H]1CCN(C(=O)O[C@H]2/C=C/COC(C)(C)C(=O)NS(=O)(=O)c3ccc4c(c3)N(C[C@@H]3CC[C@H]32)C[C@@]2(CCCc3cc(Cl)ccc32)CO4)C1` [Example 164, [(3R,6R,7S,8E,22S)-6′-Chloro-12,12-dimethyl-13,15,15-trioxo-spiro[11,20-dioxa-15-thia-1,14-diazatetracyclo[14.7.2.03,6.019,24]pentacosa-8,16,18,24-tetraene-22,1′-tetralin]-7-yl] (3R)-3-(methylamino)pyrrolidine-1-carboxylate] are < 0.001 µM and < 0.5 µM.
On the same counts, the results for `CC1(C)OC/C=C/[C@H](OC(=O)N2CC(F)C2)[C@@H]2CC[C@H]2CN2C[C@@]3(CCCc4cc(Cl)ccc43)COc3ccc(cc32)S(=O)(=O)NC1=O` [Example 165, [(3R,6R,7S,8E,22S)-6′-Chloro-12,12-dimethyl-13,15,15-trioxo-spiro[11,20-dioxa-15-thia-1,14-diazatetracyclo[14.7.2.03,6.019,24]pentacosa-8,16,18,24-tetraene-22,1′-tetralin]-7-yl] 3-fluoroazetidine-1-carboxylate] are < 0.001 µM and < 0.5 µM.

The values are drawn from patent US11130769B2 (Prelude Therapeutics Incorporated, priority 2018, dated 2021).
